Structures can show the parent of a compound that is named as a salt.
Target: T1, recombinant guanylate cyclase reporter cell line (Rattus norvegicus, UniProt P19686+P20595)
T1 construct: expressed in transfected cells
T1 sequence (P20595 1-619): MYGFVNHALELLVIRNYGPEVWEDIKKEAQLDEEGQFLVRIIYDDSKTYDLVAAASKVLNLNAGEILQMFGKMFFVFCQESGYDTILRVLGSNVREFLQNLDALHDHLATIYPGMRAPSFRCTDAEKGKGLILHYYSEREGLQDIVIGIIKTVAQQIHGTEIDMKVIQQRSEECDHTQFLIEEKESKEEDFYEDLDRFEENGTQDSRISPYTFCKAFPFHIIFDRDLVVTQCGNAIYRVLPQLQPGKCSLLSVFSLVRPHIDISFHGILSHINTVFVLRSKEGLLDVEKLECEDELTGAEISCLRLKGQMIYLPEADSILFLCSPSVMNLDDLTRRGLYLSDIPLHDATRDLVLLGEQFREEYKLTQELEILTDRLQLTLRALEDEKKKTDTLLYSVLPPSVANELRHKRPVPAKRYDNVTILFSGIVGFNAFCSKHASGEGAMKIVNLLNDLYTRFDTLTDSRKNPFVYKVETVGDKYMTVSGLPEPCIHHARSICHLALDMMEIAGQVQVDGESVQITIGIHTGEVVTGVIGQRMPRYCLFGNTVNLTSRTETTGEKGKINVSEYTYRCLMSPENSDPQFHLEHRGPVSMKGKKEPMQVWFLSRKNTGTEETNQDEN
T1 sequence (P19686 1-690): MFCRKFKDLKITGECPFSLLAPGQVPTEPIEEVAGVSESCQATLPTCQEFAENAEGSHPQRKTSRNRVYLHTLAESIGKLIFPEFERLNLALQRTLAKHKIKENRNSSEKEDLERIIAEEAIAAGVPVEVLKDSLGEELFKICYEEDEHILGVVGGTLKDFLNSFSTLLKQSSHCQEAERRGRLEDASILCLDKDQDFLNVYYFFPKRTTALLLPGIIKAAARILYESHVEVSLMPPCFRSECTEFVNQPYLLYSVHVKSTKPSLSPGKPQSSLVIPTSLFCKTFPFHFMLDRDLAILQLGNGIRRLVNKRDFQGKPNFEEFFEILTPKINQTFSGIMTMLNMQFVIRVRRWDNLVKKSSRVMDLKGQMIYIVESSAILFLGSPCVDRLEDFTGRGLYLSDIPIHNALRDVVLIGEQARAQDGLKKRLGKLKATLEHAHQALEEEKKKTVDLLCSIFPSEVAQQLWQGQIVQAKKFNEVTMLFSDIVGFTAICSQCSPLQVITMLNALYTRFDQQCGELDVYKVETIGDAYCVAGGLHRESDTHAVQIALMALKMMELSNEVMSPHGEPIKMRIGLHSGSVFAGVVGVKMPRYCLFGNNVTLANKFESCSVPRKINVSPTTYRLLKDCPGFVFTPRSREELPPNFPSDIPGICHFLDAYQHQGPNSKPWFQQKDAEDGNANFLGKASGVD
Test: Action on recombinant guanylate cyclase reporter cell line
Format: cell-based
Settings: representative MEC values
Method: B-2. Action on Recombinant Guanylate Cyclase Reporter Cell Line
The cellular action of the compounds according to the invention is determined on a recombinant guanylate cyclase reporter cell line, as described in F. Wunder et al., Anal. Biochem. 339, 104-112 (2005).
Representative MEC values (MEC=minimal effective concentration) for the compounds according to the invention are shown in the following table: […]

Compound | MEC (minimal effective concentration) [µM]
COC(=O)[C@@H](C)NC(=O)c1c(C)nc2c(OCc3c(F)cccc3F)cccn12 [Example 6, Methyl N-({8-[(2,6-difluorobenzyl)oxy]-2-methylimidazo[1,2-a]pyridin-3-yl}carbonyl)-D-alaninate] | 3.0
CCCCC(NC(=O)c1c(C)nc2c(OCc3c(F)cccc3F)cccn12)C(=O)OC (single isomer, unassigned; enantiomer b) [Example 19, ent-Methyl N-({8-[(2,6-difluorobenzyl)oxy]-2-methylimidazo[1,2-a]pyridin-3-yl}carbonyl)-norleucinate (Enantiomer B)] | 1.0
COC(=O)CCCCCCCNC(=O)c1c(C)nc2c(OCc3c(F)cccc3F)cccn12 [Example 15, Methyl 8-[({8-[(2,6-difluorobenzyl)oxy]-2-methylimidazo[1,2-a]pyridin-3-yl}carbonyl)amino]octanoate] | 1.0
COC(=O)C(CC(F)(F)F)NC(=O)c1c(C)nc2c(OCc3c(F)cccc3F)cccn12 (racemic) [Example 9, rac-Methyl 2-[({8-[(2,6-difluorobenzyl)oxy]-2-methylimidazo[1,2-a]pyridin-3-yl}carbonyl)amino]-4,4,4-trifluorobutanoate] | 3.0
COC(=O)C(NC(=O)c1c(C)nc2c(OCc3c(F)cccc3F)cccn12)c1ccc(Cl)cc1 (racemic) [Example 2, rac-Methyl (4-chlorophenyl)[({8-[(2,6-difluorobenzyl)oxy]-2-methylimidazo[1,2-a]pyridin-3-yl}carbonyl)amino]acetate] | 0.3
COC(=O)C(CCC(F)(F)F)NC(=O)c1c(C)nc2c(OCc3c(F)cccc3F)cccn12 (racemic) [Example 10, rac-Methyl N-({8-[(2,6-difluorobenzyl)oxy]-2-methylimidazo[1,2-a]pyridin-3-yl}carbonyl)-5,5,5-trifluoronorvalinate] | 1.0
COC(=O)CC(C)NC(=O)c1c(C)nc2c(OCc3c(F)cccc3F)cccn12 (racemic) [Example 4, rac-Methyl 3-[({8-[(2,6-difluorobenzyl)oxy]-2-methylimidazo[1,2-a]pyridin-3-yl}carbonyl)amino]butanoate] | 1.0
CCCCC(NC(=O)c1c(C)nc2c(OCc3c(F)cccc3F)cccn12)C(=O)OC (single isomer, unassigned; enantiomer a) [Example 18, ent-Methyl N-({8-[(2,6-difluorobenzyl)oxy]-2-methylimidazo[1,2-a]pyridin-3-yl}carbonyl)-norleucinate (Enantiomer A)] | 0.3
COC(=O)C(CCCC(F)(F)F)NC(=O)c1c(C)nc2c(OCc3c(F)ccc(F)c3F)cc(C)cn12 (racemic) [Example 14, rac-Methyl N-({2,6-dimethyl-8-[(2,3,6-trifluorobenzyl)oxy]imidazo[1,2-a]pyridin-3-yl}carbonyl)-6,6,6-trifluoronorleucinate] | 0.3
COC(=O)C(NC(=O)c1c(C)nc2c(OCc3c(F)cccc3F)cccn12)c1ccc(F)cc1 (racemic) [Example 1, rac-Methyl [({8-[(2,6-difluorobenzyl)oxy]-2-methylimidazo[1,2-a]pyridin-3-yl}carbonyl)amino]-(4-fluorophenyl)acetate] | 0.3
CCCC[C@H](NC(=O)c1c(C)nc2c(OCc3c(F)cccc3F)cccn12)C(=O)O [Example 23, N-({8-[(2,6-Difluorobenzyl)oxy]-2-methylimidazo[1,2-a]pyridin-3-yl}carbonyl)norleucine hydrochloride] | 2.0
Cc1nc2c(OCC3CCCCC3)cccn2c1C(=O)NCCCCCCCC(=O)O [Example 20, 8-({[8-(Cyclohexylmethoxy)-2-methylimidazo[1,2-a]pyridin-3-yl]carbonyl}amino)octanoic acid] | 0.065
CCCCC(NC(=O)c1c(C)nc2c(OCc3c(F)cccc3F)cccn12)C(=O)OC (racemic) [Example 8, rac-Methyl N-({8-[(2,6-difluorobenzyl)oxy]-2-methylimidazo[1,2-a]pyridin-3-yl}carbonyl)norleucinate] | 1.0
COC(=O)C(CCCC(F)(F)F)NC(=O)c1c(C)nc2c(OCc3c(F)cccc3F)cc(C)cn12 (racemic) [Example 12, rac-Methyl N-({8-[(2,6-difluorobenzyl)oxy]-2,6-dimethylimidazo[1,2-a]pyridin-3-yl}carbonyl)-6,6,6-trifluoronorleucinate] | 0.3
Cc1nc2c(OCC3CCCCC3)cccn2c1C(=O)NCCCCCC(=O)O [Example 22, 6-({[8-(Cyclohexylmethoxy)-2-methylimidazo[1,2-a]pyridin-3-yl]carbonyl}amino)hexanoic acid] | 0.3
COC(=O)[C@H]1CC[C@H](CNC(=O)c2c(C)nc3c(OCc4c(F)cccc4F)cc(C)cn23)CC1 [Example 24, Methyl trans-4-{[({8-[(2,6-difluorobenzyl)oxy]-2,6-dimethylimidazo[1,2-a]pyridin-3-yl}carbonyl)-amino]methyl}cyclohexanecarboxylate] | 0.1
Cc1cc(OCc2c(F)cccc2F)c2nc(C)c(C(=O)NC[C@H]3CC[C@H](C(=O)O)CC3)n2c1 [Example 25, trans-4-{[({8-[(2,6-Difluorobenzyl)oxy]-2,6-dimethylimidazo[1,2-a]pyridin-3-yl}carbonyl)amino]methyl}cyclohexanecarboxylic acid] | 1.0
COC(=O)CC(NC(=O)c1c(C)nc2c(OCc3c(F)cccc3F)cccn12)C(F)(F)F (racemic) [Example 17, rac-Methyl 3-[({8-[(2,6-difluorobenzyl)oxy]-2-methylimidazo[1,2-a]pyridin-3-yl}carbonyl)-amino]-4,4,4-trifluorobutanoate] | 1.0
Cc1nc2c(OCc3c(F)cccc3F)cccn2c1C(=O)NCCCCCCCC(=O)O [Example 21, 8-[({8-[(2,6-Difluorobenzyl)oxy]-2-methylimidazo[1,2-a]pyridin-3-yl}carbonyl)amino]octanoic acid] | 0.1
COC(=O)C(CCCC(F)(F)F)NC(=O)c1c(C)nc2c(OCc3c(F)cccc3F)cc(Cl)cn12 (racemic) [Example 13, rac-Methyl N-({6-chloro-8-[(2,6-difluorobenzyl)oxy]-2-methylimidazo[1,2-a]pyridin-3-yl}carbonyl)-6,6,6-trifluoronorleucinate] | 0.3
COC(=O)CCNC(=O)c1c(C)nc2c(OCc3c(F)cccc3F)cccn12 [Example 7, Methyl N-({8-[(2,6-difluorobenzyl)oxy]-2-methylimidazo[1,2-a]pyridin-3-yl}carbonyl)-beta-alaninate] | 1.0
Cc1nc2c(OCc3c(F)cccc3F)cccn2c1C(=O)N[C@@H]1CCOC1=O [Example 3, 8-[(2,6-Difluorobenzyl)oxy]-2-methyl-N-[(3R)-2-oxotetrahydrofuran-3-yl]imidazo[1,2-a]pyridine-3-carboxamide] | 0.3
COC(=O)CCCCCCCNC(=O)c1c(C)nc2c(OCC3CCCCC3)cccn12 [Example 16] | 0.3
COC(=O)C(C)(C)NC(=O)c1c(C)nc2c(OCc3c(F)cccc3F)cccn12 [Example 5, Methyl N-({8-[(2,6-difluorobenzyl)oxy]-2-methylimidazo[1,2-a]pyridin-3-yl}carbonyl)-2-methylalaninate] | 0.3
COC(=O)C(CCCC(F)(F)F)NC(=O)c1c(C)nc2c(OCc3c(F)cccc3F)cccn12 (racemic) [Example 11, rac-Methyl N-({8-[(2,6-difluorobenzyl)oxy]-2-methylimidazo[1,2-a]pyridin-3-yl}carbonyl)-6,6,6-trifluoronorleucinate] | 0.3
